These results are taken from paper PMC6891286, “Towards the Development of an In vivo Chemical Probe for Cyclin G Associated Kinase (GAK)” (Molecules, 2019).

For one data set, the target named is BMP2K (Homo sapiens, UniProt Q9NSY1). The experiment in a line: NAK family TR-FRET binding displacement assay. A general note: Time-resolved FRET reads energy transfer from a long-lived donor to a nearby acceptor.
For a further data set, the target named is STK16 (Homo sapiens, UniProt O75716). The data set can be described thus: NAK family TR-FRET binding displacement assay. To be noted: NAK family FRET screening; read-out: Binding displacement assay STK16 Ki.
The nature of data set [1]: mouse liver microsome metabolic stability. To be noted: mouse liver microsomes; for T1/2 Ratio: normalization with respect to internal control (propranolol); for half-life: mouse, T1/2 (min), mouse liver microsomes with NADPH, mean average, n = 2. As for the experimental part: SGC-GAK-1 (1) was incubated with MLMs in the presence or absence of added NADPH, and the compound was quantified at various time points over an hour.
The metabolic stability of the 4-anilinoquinolines (8–13) were evaluated in MLMs (Table 1). Half-lives for metabolic clearance were normalized to propranolol in each experimental run to control for variations in the MLM preparations.
On the technique in general: Liver microsomes are a subcellular fraction often used to study metabolism.

Data set [2] deals with T1, GAK (Homo sapiens, UniProt O14976).
T1 sequence (O14976 1-1311): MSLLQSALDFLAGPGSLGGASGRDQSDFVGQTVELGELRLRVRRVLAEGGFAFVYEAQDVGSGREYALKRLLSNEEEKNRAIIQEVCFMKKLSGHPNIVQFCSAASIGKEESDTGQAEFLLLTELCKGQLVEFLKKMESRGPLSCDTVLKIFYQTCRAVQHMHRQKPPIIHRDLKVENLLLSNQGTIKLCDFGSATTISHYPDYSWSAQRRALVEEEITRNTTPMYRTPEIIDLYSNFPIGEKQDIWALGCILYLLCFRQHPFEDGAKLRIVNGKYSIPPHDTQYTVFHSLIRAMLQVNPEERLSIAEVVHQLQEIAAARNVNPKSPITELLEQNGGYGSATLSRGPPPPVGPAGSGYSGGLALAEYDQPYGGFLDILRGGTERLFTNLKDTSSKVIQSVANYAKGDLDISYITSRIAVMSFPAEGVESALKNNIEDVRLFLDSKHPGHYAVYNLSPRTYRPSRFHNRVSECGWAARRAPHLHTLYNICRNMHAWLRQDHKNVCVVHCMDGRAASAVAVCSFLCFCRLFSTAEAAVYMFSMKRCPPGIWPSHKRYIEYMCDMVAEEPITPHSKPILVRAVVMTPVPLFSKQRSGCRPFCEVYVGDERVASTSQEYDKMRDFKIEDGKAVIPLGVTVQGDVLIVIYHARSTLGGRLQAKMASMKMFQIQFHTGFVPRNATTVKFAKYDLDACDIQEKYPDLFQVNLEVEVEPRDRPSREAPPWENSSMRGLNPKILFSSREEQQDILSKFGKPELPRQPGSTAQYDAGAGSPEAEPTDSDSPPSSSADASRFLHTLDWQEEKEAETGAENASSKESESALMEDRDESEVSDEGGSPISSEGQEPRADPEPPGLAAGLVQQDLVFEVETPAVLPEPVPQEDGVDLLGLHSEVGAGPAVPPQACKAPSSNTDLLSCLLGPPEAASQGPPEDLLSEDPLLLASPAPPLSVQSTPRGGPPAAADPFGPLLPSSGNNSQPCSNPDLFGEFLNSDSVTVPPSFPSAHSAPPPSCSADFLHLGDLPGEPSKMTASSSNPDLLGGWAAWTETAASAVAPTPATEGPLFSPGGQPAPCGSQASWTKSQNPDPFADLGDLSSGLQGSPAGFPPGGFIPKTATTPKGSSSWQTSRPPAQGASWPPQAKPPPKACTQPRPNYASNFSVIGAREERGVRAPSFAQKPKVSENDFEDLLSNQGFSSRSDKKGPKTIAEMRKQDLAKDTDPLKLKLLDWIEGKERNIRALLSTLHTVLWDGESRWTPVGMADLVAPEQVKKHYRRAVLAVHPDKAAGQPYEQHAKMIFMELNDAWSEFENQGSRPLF
The experiment in a line: TR-FRET ligand-binding displacement assay.

The next data set has as its target AAK1 (Homo sapiens, UniProt Q2M2I8). The data set can be described thus: NAK family TR-FRET binding displacement assay. To be noted: NAK family FRET screening.
Data set [3] concerns the target T1, GAK. The experiment in a line: live cell NanoBRET target engagement assay. It is filed as cell-based. To be noted: for IC50: nanoBRET, mean average, n = 2; for IC50 values in cells: live cell NanoBRET assay. In general terms: BRET reads energy transfer from a luciferase to a nearby fluorophore.
A short description of the next data set: Kinetic Solubility. To be noted: pH 7.4, aqueous buffer, kinetic from dmso stock, PBS pH7.4 (100 µM). The class given is physicochemical.
Setting [4] is: TR-FRET assay, read-out: Biochemical GAK Ki.
The mark [5] stands for this setting: NAK family FRET screening, read-out: Binding displacement assay GAK Ki.

Where two headings read alike, the source gives them in different places. Where only a bound is given, the exact number is not on record here.

BMP2K, sequence (Q9NSY1 whole entry): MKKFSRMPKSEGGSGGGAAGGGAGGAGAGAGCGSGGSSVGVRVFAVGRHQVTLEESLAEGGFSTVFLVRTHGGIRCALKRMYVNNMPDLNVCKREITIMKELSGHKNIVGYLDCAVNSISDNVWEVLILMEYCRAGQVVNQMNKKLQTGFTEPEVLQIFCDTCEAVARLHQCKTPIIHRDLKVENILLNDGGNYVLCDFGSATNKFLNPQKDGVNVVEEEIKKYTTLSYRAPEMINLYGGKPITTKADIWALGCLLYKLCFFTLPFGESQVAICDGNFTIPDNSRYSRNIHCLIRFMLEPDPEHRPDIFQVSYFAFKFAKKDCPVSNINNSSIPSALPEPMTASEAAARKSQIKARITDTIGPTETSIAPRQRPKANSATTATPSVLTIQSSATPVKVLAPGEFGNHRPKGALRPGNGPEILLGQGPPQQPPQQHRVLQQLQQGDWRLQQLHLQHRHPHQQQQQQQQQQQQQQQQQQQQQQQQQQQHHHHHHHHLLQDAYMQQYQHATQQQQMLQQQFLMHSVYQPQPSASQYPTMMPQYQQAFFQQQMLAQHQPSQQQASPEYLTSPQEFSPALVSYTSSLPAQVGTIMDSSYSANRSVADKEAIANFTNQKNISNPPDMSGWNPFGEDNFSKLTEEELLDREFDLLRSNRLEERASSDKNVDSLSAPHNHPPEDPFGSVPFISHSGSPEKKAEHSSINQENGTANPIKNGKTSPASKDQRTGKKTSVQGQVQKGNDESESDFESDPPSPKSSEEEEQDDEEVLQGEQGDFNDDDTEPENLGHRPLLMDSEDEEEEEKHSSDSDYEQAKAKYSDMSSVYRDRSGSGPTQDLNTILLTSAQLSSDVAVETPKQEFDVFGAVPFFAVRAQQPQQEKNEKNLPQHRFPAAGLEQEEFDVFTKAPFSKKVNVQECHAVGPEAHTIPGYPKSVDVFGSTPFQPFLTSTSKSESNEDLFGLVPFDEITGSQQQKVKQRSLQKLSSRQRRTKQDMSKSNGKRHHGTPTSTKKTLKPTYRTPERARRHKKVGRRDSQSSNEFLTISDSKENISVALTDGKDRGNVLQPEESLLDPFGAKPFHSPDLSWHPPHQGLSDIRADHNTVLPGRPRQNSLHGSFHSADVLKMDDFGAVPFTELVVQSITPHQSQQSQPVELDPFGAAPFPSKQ
STK16, sequence (O75716 whole entry): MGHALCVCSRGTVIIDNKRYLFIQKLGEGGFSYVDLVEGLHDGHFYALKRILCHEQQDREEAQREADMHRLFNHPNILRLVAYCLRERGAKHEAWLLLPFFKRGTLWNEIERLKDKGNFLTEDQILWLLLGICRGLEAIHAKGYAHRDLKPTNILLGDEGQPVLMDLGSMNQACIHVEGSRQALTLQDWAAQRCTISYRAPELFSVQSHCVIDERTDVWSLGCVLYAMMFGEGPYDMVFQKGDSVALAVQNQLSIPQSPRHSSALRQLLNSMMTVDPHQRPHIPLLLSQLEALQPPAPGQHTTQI
AAK1, sequence (Q2M2I8 whole entry): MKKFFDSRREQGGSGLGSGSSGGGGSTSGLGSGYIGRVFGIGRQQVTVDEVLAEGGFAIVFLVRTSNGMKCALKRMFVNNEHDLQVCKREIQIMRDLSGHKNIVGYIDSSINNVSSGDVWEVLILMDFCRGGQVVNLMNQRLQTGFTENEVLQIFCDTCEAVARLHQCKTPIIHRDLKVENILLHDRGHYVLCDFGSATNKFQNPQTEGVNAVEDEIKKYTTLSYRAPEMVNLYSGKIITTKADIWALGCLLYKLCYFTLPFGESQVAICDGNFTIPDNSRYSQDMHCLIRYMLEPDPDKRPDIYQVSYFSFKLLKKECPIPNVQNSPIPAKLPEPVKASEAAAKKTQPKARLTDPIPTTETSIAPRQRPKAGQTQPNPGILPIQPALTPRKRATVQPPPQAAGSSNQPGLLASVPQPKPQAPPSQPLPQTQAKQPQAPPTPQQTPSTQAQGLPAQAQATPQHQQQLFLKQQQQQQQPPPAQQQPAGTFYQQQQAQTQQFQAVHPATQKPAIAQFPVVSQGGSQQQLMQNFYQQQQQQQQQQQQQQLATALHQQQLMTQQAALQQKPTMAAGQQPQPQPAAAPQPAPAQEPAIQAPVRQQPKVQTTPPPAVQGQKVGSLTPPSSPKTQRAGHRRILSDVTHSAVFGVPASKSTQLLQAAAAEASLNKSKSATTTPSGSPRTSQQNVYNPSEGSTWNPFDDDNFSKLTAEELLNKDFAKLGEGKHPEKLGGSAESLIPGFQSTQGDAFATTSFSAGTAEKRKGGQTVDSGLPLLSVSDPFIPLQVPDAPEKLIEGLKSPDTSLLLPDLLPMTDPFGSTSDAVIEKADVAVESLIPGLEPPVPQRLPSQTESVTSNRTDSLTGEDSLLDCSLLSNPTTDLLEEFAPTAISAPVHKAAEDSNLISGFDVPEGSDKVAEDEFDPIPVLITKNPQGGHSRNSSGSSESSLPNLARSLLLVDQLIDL

As to `Fc1c(F)c(F)c(Nc2ccnc3ccc(C(F)(F)F)cc23)c(F)c1F` [Compound 12], the Ki on BMP2K is greater than 100 µM; on STK16, 19 µM; at GAK [2] (setting [4]), 0.88 µM; on AAK1, greater than 100 µM. For the same compound, the “T1/2 Ratio” value in data set [1] is recorded as 7.0. Further, the half-life in data set [1] amounted to 45.6 min.

As for `COc1cccc(Nc2ccnc3ccc(Br)cc23)c1OC` [Compound 15, 6-Bromo-N-(2,3-dimethoxyphenyl)quinolin-4-amine], the Ki is 8.7 µM at BMP2K, greater than 100 µM on STK16, 0.74 µM on GAK [2] (setting [4]) and 3.3 µM at AAK1. The IC50 at GAK [3] was greater than 5 µM. In addition, the “T1/2 Ratio” value in data set [1] was 0.12. In data set [1], this compound came in with a half-life of 1 min.

Consider `FC1(F)Oc2cccc(Nc3ccnc4ccc(Br)cc34)c2O1` [Compound 16, 6-Bromo-N-(2,2-difluorobenzo[d][1,3]dioxol-4-yl)quinolin-4-amine], for which the Ki at BMP2K is greater than 100 µM; on STK16 it was greater than 100 µM; on GAK [2] (setting [4]), 0.46 µM; at AAK1, greater than 100 µM. On GAK [3], the IC50 was greater than 5 µM. Besides, the “T1/2 Ratio” value in data set [1] came to 0.24. Further, in data set [1], the half-life turned out to be 2 min.

Turning to `Brc1ccc2nccc(Nc3cccc4c3CCO4)c2c1` [Compound 17, 6-Bromo-N-(2,3-dihydrobenzofuran-4-yl)quinolin-4-amine], the Ki is greater than 100 µM at BMP2K, greater than 100 µM at STK16, 0.0052 µM on GAK [2] (setting [4]) and greater than 100 µM at AAK1. On GAK [3], the IC50 is greater than 5 µM. For the same compound, in data set [1], the “T1/2 Ratio” value was found to be 0.16. Further, the half-life in data set [1] amounted to 1.7 min.

Regarding `Brc1ccc2nccc(Nc3cccc4c3OCC4)c2c1` [Compound 18, 6-Bromo-N-(2,3-dihydrobenzofuran-7-yl)quinolin-4-amine], the inhibitory constant (Ki) at BMP2K is 11 µM; on STK16 it was greater than 100 µM; on GAK [2] (setting [4]), 0.029 µM; on AAK1, 3.5 µM. This compound also returned an IC50 at GAK [3] of 2.5 µM. The “T1/2 Ratio” value in data set [1] is 0.10. The compound also had a half-life in data set [1] of 0.82 min.

Consider `Brc1ccc2nccc(Nc3cccc4occc34)c2c1` [Compound 19, N-(Benzofuran-4-yl)-6-bromoquinolin-4-amine], for which the Ki on BMP2K was 11 µM; on STK16 it was greater than 100 µM; on GAK [2] (setting [4]), 0.0019 µM; on AAK1, 1.9 µM. The “IC50 values in cells” value against GAK [3] is given as “submicromolar”. The same compound registered an IC50 against GAK [3] of 0.18 µM. Further, in data set [1], the “T1/2 Ratio” value amounted to 0.16. Also, the half-life in data set [1] came to 1.7 min.

For the compound `Brc1ccc2nccc(Nc3cccc4ccoc34)c2c1` [Compound 20, N-(Benzofuran-7-yl)-6-bromoquinolin-4-amine], the Ki at BMP2K was 16 µM; at STK16, greater than 100 µM; on GAK [2] (setting [4]) it was 0.0043 µM; on AAK1 it was 4.6 µM. Also, at GAK [3], the “IC50 values in cells” value was “submicromolar”. Also, the IC50 at GAK [3] came to 0.57 µM. For the same compound, the “T1/2 Ratio” value in data set [1] stood at 0.08. Moreover, the half-life in data set [1] worked out at 0.9 min.

Consider `Brc1ccc2nccc(Nc3cccc4sccc34)c2c1` [Compound 26, N-(Benzo[b]thiophen-4-yl)-6-bromoquinolin-4-amine], for which the inhibition constant Ki is greater than 100 µM at BMP2K, greater than 100 µM on STK16, 0.023 µM on GAK [2] (setting [4]) and greater than 100 µM at AAK1. Besides, the IC50 against GAK [3] came out at 3.3 µM. The “T1/2 Ratio” value in data set [1] was determined as 0.50. Besides, in data set [1], the half-life came to 4.1 min.

As to `Brc1ccc2nccc(Nc3cccc4nc[nH]c34)c2c1` [Compound 27, N-(1H-Benzo[d]imidazol-7-yl)-6-bromoquinolin-4-amine], the inhibition constant (Ki) on BMP2K is 2.3 µM; on STK16 it was 26 µM; at GAK [2] (setting [5]), 0.066 µM; at AAK1, 1.3 µM. Besides, the IC50 on GAK [3] is greater than 5 µM. In addition, in data set [1], the “T1/2 Ratio” value stood at 1.0. Moreover, in data set [1], the half-life was determined as 8.1 min.

Turning to `Brc1ccc2nccc(Nc3cccc4nonc34)c2c1` [Compound 28, N-(6-Bromoquinolin-4-yl)benzo[c][1,2,5]oxadiazol-4-amine], the Ki at BMP2K is 13 µM; on STK16 it was 11 µM; on GAK [2] (setting [4]) it was 0.041 µM; at AAK1, 4.6 µM. Besides, the IC50 against GAK [3] came out at 2.5 µM. Besides, in data set [1], the “T1/2 Ratio” value was determined as 0.15. Besides, the half-life in data set [1] was determined as 1.2 min.

In the case of `Cn1nnc2c(Nc3ccnc4ccc(Br)cc34)cccc21` [Compound 30, 6-Bromo-N-(1-methyl-1H-benzo[d][1,2,3]triazol-4-yl)quinolin-4-amine], the Ki on BMP2K is 20 µM; at STK16 it was greater than 100 µM; at GAK [2] (setting [5]), 2.8 µM; on AAK1, 8.7 µM. On GAK [3], this compound gave an IC50 greater than 5 µM. For the same compound, in data set [1], the “T1/2 Ratio” value is listed as 0.09. Also, the half-life in data set [1] was 0.73 min.

Regarding `Cn1ncc2c(Nc3ccnc4ccc(Br)cc34)cccc21` [Compound 31, 6-Bromo-N-(1-methyl-1H-indazol-4-yl)quinolin-4-amine], the Ki at BMP2K turned out to be 16 µM; on STK16 it was 28 µM; at GAK [2] (setting [5]), 3.6 µM; on AAK1 it was 13 µM. The compound further yielded an IC50 on GAK [3] greater than 5 µM. The “T1/2 Ratio” value in data set [1] is recorded as 0.10. In data set [1], this compound yielded a half-life of 0.8 min.

On to `Fc1cc2cn[nH]c2cc1Nc1ccnc2ccc(Br)cc12` [Compound 36, 6-Bromo-N-(5-fluoro-1H-indazol-6-yl)quinolin-4-amine], for which the results for the solubility kinetic in “Kinetic Solubility” (read-out: Kinetic Solubility µM) and in “Kinetic Solubility” (read-out: Kinetic Solubility µg/mL) were 2 µM and 0.7 µg/mL, respectively. Further, the IC50 against GAK [3] was greater than 5 µM. The “T1/2 Ratio” value in data set [1] is 2.2. Also, the half-life in data set [1] is 14.8 min.

As for `O=C1NCc2ccc(Nc3ccnc4ccc(Br)cc34)cc21` [Compound 38, 6-[(6-Bromoquinolin-4-yl)amino]-2,3-dihydro-1H-isoindol-1-one], the Ki stood at 0.98 µM on BMP2K, 2.7 µM at STK16, 0.062 µM on GAK [2] (setting [4]) and 1.4 µM at AAK1. The compound also gave an IC50 on GAK [3] greater than 5 µM. For the same compound, the “T1/2 Ratio” value in data set [1] came out at 1.0. This compound also came in with a half-life in data set [1] of 8.1 min.

As for `O=c1[nH]c2ccc(Nc3ccnc4ccc(Br)cc34)cc2[nH]1` [Compound 39, 5-[(6-Bromoquinolin-4-yl)amino]-2,3-dihydro-1H-1,3-benzodiazol-2-one], the inhibition constant Ki is 22 µM on BMP2K, 21 µM at STK16, 0.36 µM on GAK [2] (setting [4]) and 1.9 µM at AAK1. On GAK [3], this compound registered an IC50 greater than 5 µM. In data set [1], the “T1/2 ratios fold higher than 9” value is no less than 2 fold. For the same compound, the “T1/2 Ratio” value in data set [1] is greater than 25. The half-life in data set [1] was greater than 200 min.

As to `O=c1[nH]c2ccc(Nc3ccnc4ccc(Br)cc34)cc2o1` [Compound 40, 6-[(6-Bromoquinolin-4-yl)amino]-2,3-dihydro-1,3-benzoxazol-2-one], the Ki on BMP2K was 4.9 µM; at STK16, 8.8 µM; on GAK [2] (setting [4]) it was 0.68 µM; on AAK1 it was 2.4 µM. The IC50 against GAK [3] was greater than 5 µM. The “T1/2 ratios fold higher than 9” value in data set [1] was no less than 2 fold. Moreover, in data set [1], the “T1/2 Ratio” value was 6.9. For the same compound, the half-life in data set [1] is 55.9 min.

The Ki is the dissociation constant of the complex between target and ligand, obtained from inhibition or displacement. As a reminder, the half-life is the time in which the quantity being followed falls by half. High values mean slow decline, low ones rapid decline. Usually IC50 stands for the concentration needed to halve the response being measured.
